According to EP4678638A1, “NEW E3 UBIQUITIN LIGASE LIGAND, PROTEIN DEGRADATION AGENT AND USE THEREOF” (priority 2023, dated 2024):

Legend:
Format in all cases: cell-based
Conditions in all cases: Table D16
[1] = biological target: T1, IKZF1 (Homo sapiens, UniProt Q13422+Q96SW2); test: Western blot degradation of IKZF1 (hPBMC)
T1 construct: evaluate the effects of the compounds of the present disclosure on the expression of target proteins in cells; endogenous in cells; host or cells: hPBMC
Method: (§1) Conventional Western blot assay was performed to evaluate the effects of the compounds of the present disclosure on the expression of target proteins in cells.
(§2) (1) Cell Seeding and Protein Harvesting: The selected cells were processed according to the cell seeding procedure and protein harvesting procedure in Table III-2. Table III-2 Cell Seeding and Protein Harvesting Procedures
(§3) (2) To the collected supernatant, 5X SDS sample loading buffer was added, followed by denaturation at 95°C for 5 minutes. The denatured samples were then separated by SDS-PAGE electrophoresis on a polyacrylamide gel. Proteins were transferred to a nitrocellulose membrane (0.45 µm NC membrane), blocked with blocking buffer at room temperature for 1 hour, and subjected to antibody incubation and development procedures according to the antibody manufacturer's instructions (Cell Signaling Technology).
(§4) Half-Maximal Degradation Concentration value (the drug concentration required for degrading proteins by 50%, abbreviated as DC50) reads method: comparing the grayscale values of Western blot bands from drug-treated samples with those from blank DMSO-treated controls, and identifying the drug concentration range at which the grayscale value is half that of the DMSO-treated control bands.
(§5) DC50 values can be calculated using ImageJ software to measure grayscale values of Western blot bands from drug-treated samples. The concentration-response curve is fitted to estimate the drug concentration corresponding to half the grayscale value.
(§6) Target protein remaining (%) refers to the percentage of target protein remaining in hPBMC cells after treatment with protein degrader compounds.
(§7) Calculation method for target protein remaining (%): Use ImageJ software to measure grayscale values of Western blot bands from drug (protein degrader)-treated samples. The grayscale value of drug-treated bands is divided by that of internal control protein bands, and the resulting quotient is normalized to obtain the relative percentage of remaining target protein after protein degrader treatment.
(§8) Target protein degradation rate (%) = 100% - target protein remaining (%).

[2] = biological target: T2, CK1a (Homo sapiens, UniProt P48729+Q96SW2); test: Western blot degradation of CK1a (hPBMC)
T2 construct: evaluate the effects of the compounds of the present disclosure on the expression of target proteins in cells; endogenous in cells; host or cells: hPBMC
Method: as §1, §2, §3, §4, §5, §6, §7, §8

[3] = biological target: T3, IKZF3 (Homo sapiens, UniProt Q96SW2+Q9UKT9); test: Western blot degradation of IKZF3 (hPBMC)
T3 construct: evaluate the effects of the compounds of the present disclosure on the expression of target proteins in cells; endogenous in cells; host or cells: hPBMC
Method: as §1, §2, §3, §4, §5, §6, §7, §8

[4] = biological target: T4, WEE1 (Homo sapiens, UniProt P30291+Q96SW2); test: Western blot degradation of WEE1 (hPBMC)
T4 construct: evaluate the effects of the compounds of the present disclosure on the expression of target proteins in cells; endogenous in cells; host or cells: hPBMC
Method: as §1, §2, §3, §4, §5, §6, §7, §8

[5] = biological target: T5, GSPT1 (Homo sapiens, UniProt P15170+Q96SW2); test: Western blot degradation of GSPT1 (hPBMC)
T5 construct: evaluate the effects of the compounds of the present disclosure on the expression of target proteins in cells; endogenous in cells; host or cells: hPBMC
Method: as §1, §2, §3, §4, §5, §6, §7, §8

[6] = biological target: T6, IKZF2 (Homo sapiens, UniProt Q96SW2+Q9UKS7); test: Western blot degradation of IKZF2 (hPBMC)
T6 construct: evaluate the effects of the compounds of the present disclosure on the expression of target proteins in cells; endogenous in cells; host or cells: hPBMC
Method: as §1, §2, §3, §4, §5, §6, §7, §8

T2 sequence (P48729 whole entry): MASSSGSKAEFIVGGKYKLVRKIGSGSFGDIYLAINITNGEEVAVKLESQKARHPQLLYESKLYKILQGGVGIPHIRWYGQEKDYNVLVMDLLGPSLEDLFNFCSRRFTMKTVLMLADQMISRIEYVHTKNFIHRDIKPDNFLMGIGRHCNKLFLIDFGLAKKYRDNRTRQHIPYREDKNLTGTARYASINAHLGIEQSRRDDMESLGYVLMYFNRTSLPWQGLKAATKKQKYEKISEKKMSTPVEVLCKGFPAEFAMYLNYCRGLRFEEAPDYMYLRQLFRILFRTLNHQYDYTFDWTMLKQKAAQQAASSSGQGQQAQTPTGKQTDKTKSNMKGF
T2 sequence (Q96SW2 whole entry): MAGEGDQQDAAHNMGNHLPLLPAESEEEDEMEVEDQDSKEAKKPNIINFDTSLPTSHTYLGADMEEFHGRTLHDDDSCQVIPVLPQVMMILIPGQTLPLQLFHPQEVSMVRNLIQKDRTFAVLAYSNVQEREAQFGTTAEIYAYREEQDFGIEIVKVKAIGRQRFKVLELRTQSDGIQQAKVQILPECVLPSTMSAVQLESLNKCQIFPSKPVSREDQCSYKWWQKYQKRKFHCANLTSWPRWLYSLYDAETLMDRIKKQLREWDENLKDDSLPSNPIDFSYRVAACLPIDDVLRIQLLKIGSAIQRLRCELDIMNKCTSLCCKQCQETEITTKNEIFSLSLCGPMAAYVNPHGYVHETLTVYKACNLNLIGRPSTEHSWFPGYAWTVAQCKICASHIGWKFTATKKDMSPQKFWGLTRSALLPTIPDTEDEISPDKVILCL
T2 sequence (Q16531 whole entry partner): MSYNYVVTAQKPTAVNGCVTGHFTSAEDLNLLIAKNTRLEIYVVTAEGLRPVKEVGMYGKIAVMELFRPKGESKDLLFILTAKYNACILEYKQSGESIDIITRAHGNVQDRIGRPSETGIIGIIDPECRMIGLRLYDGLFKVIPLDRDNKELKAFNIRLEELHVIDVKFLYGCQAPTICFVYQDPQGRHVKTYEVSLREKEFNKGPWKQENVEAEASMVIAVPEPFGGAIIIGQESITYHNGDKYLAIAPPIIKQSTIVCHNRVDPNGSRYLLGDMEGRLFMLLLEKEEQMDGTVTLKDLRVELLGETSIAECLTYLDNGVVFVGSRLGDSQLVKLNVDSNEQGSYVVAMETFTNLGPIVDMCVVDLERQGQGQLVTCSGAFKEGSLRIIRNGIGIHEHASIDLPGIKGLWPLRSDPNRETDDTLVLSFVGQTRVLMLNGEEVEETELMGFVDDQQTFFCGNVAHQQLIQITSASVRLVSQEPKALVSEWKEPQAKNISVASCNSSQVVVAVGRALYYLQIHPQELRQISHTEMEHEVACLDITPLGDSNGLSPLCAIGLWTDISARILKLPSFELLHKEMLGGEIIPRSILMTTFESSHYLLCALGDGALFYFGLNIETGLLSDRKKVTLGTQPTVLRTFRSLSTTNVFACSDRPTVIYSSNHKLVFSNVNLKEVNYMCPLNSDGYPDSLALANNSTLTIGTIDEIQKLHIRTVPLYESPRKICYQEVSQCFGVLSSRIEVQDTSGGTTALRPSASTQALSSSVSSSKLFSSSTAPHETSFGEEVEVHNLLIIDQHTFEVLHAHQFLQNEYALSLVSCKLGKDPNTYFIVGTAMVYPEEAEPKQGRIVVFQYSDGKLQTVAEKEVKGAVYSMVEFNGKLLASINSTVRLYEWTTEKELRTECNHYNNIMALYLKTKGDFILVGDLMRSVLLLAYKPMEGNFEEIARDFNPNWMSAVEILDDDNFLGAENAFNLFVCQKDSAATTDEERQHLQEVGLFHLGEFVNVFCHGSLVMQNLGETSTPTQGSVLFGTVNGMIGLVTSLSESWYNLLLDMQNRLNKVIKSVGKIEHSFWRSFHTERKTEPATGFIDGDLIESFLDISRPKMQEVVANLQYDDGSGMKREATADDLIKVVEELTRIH
T6 sequence (Q9UKS7 whole entry): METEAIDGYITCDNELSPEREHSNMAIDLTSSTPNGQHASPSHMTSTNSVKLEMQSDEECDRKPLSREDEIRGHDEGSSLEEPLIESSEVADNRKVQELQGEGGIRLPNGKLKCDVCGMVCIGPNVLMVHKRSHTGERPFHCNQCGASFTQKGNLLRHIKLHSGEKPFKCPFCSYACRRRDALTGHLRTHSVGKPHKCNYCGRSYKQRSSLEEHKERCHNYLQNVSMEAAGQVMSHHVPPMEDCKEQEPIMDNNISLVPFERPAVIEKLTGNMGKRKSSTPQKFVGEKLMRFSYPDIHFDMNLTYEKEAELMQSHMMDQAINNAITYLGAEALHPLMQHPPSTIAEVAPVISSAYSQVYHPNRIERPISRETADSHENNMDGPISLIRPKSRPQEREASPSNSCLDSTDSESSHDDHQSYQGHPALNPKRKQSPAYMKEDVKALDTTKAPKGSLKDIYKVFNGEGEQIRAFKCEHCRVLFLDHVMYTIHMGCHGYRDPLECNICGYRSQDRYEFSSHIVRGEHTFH
T6 sequence (Q96SW2 whole entry): as the sequence (Q96SW2 whole entry) above
T6 sequence (Q16531 whole entry partner): as the sequence (Q16531 whole entry partner) above
T5 sequence (P15170 whole entry): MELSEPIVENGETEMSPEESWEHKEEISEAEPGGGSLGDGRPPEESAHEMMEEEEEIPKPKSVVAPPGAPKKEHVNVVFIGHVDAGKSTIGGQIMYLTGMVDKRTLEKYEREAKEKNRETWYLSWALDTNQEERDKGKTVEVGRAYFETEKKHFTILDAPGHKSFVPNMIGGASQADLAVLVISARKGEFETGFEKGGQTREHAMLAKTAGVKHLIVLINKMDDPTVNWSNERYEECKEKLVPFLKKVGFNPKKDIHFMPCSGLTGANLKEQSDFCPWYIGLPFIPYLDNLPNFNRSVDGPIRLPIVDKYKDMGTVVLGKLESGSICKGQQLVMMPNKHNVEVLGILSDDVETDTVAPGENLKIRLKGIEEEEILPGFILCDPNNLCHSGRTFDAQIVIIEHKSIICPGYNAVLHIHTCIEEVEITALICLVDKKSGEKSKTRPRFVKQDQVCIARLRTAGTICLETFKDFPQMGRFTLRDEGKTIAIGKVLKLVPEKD
T5 sequence (Q96SW2 whole entry): as the sequence (Q96SW2 whole entry) above
T5 sequence (Q16531 whole entry partner): as the sequence (Q16531 whole entry partner) above
T4 sequence (P30291 whole entry): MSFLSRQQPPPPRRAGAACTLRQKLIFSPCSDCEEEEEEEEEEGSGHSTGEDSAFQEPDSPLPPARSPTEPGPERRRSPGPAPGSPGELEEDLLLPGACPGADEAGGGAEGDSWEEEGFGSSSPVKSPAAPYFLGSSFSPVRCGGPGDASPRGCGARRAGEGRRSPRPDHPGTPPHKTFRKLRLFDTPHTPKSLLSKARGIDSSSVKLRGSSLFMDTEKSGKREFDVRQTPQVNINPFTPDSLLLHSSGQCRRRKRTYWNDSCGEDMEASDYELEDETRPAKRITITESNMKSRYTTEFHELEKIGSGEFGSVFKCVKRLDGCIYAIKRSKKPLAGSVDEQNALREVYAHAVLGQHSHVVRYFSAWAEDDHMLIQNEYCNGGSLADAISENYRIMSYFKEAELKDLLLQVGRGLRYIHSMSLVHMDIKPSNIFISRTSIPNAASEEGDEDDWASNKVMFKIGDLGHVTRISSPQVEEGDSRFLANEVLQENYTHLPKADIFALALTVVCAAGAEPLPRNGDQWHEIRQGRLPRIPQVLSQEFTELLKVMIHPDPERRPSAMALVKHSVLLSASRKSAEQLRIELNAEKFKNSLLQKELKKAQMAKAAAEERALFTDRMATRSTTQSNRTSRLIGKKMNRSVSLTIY
T4 sequence (Q96SW2 whole entry): as the sequence (Q96SW2 whole entry) above
T4 sequence (Q16531 whole entry partner): as the sequence (Q16531 whole entry partner) above
T1 sequence (Q13422 whole entry): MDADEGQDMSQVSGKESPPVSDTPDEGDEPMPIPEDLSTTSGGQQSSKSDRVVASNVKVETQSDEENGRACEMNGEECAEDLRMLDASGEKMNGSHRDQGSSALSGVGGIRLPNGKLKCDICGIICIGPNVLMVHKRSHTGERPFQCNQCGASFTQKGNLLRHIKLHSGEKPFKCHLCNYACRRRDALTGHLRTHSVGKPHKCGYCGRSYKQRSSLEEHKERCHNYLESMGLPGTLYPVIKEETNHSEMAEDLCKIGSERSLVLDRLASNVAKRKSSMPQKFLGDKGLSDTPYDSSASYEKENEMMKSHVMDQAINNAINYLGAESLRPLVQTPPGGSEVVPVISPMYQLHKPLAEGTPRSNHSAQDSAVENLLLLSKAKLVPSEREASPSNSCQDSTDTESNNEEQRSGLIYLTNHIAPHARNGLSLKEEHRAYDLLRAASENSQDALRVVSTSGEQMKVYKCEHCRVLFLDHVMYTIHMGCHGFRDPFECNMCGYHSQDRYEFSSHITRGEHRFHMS
T1 sequence (Q96SW2 whole entry): as the sequence (Q96SW2 whole entry) above
T1 sequence (Q16531 whole entry partner): as the sequence (Q16531 whole entry partner) above

SMILES	Degradation of substrate protein IKZF1 (substrate protein remaining %) [1]	Degradation of substrate protein CKla (substrate protein remaining %) [2]	Degradation of substrate protein IKZF3 (substrate protein remaining %) [3]	Degradation of substrate protein WEE1 (substrate protein remaining %) [4]	Degradation of substrate protein GSPT1 (substrate protein remaining %) [5]	Degradation of substrate protein IKZF2 (substrate protein remaining %) [6]
CC(C)(C)[Si](C)(C)OCc1ccncc1NC1CCC(=O)NC1=O (stereo not drawn) [GT-07638, 3-((4-(((tert-Butyldimethylsilyl)oxy)methyl)pyridin-3-yl)amino)piperidine-2,6-dione]	B (B is defined as substrate protein remaining % > 80%)	B (B is defined as substrate protein remaining % > 80%)	A (A is defined as 0% ≤ substrate protein remaining % ≤ 80%)	A (A is defined as 0% ≤ substrate protein remaining % ≤ 80%)	A (A is defined as 0% ≤ substrate protein remaining % ≤ 80%)	A (A is defined as 0% ≤ substrate protein remaining % ≤ 80%)
CC(C)(C)[Si](C)(C)OCc1cncnc1NC1CCC(=O)NC1=O (stereo not drawn) [GT-07639, 3-((5-(((tert-Butyldimethylsilyl)oxy)methyl)pyrimidin-4-yl)amino)piperidine-2,6-dione]	A (A is defined as 0% ≤ substrate protein remaining % ≤ 80%)	A (A is defined as 0% ≤ substrate protein remaining % ≤ 80%)	A (A is defined as 0% ≤ substrate protein remaining % ≤ 80%)	A (A is defined as 0% ≤ substrate protein remaining % ≤ 80%)	A (A is defined as 0% ≤ substrate protein remaining % ≤ 80%)	A (A is defined as 0% ≤ substrate protein remaining % ≤ 80%)
O=Cc1ccc(NC2CCC(=O)NC2=O)cn1 (stereo not drawn) [GT-07640, 5-((2,6-Dioxopiperidin-3-yl)amino)picolinaldehyde]	A (A is defined as 0% ≤ substrate protein remaining % ≤ 80%)	B (B is defined as substrate protein remaining % > 80%)	A (A is defined as 0% ≤ substrate protein remaining % ≤ 80%)	A (A is defined as 0% ≤ substrate protein remaining % ≤ 80%)	A (A is defined as 0% ≤ substrate protein remaining % ≤ 80%)	A (A is defined as 0% ≤ substrate protein remaining % ≤ 80%)
CC(C)(C)[Si](C)(C)OCc1cc(NC2CCC(=O)NC2=O)ncc1F (stereo not drawn) [GT-07724, 3-((4-(((tertbutyldimethylsilyl)oxy)methyl)-5-fluoropyridin-2-yl)amino)piperidine-2,6-dione]	A (A is defined as 0% ≤ substrate protein remaining % ≤ 80%)	B (B is defined as substrate protein remaining % > 80%)	A (A is defined as 0% ≤ substrate protein remaining % ≤ 80%)	A (A is defined as 0% ≤ substrate protein remaining % ≤ 80%)	A (A is defined as 0% ≤ substrate protein remaining % ≤ 80%)	A (A is defined as 0% ≤ substrate protein remaining % ≤ 80%)
O=C1CCN(c2cncc(CCl)n2)C(=O)N1 [GT-07728, 1-(6-(Chloromethyl)pyrazin-2-yl)dihydropyrimidine-2,4(1H,3H)-dione]	A (A is defined as 0% ≤ substrate protein remaining % ≤ 80%)	B (B is defined as substrate protein remaining % > 80%)	A (A is defined as 0% ≤ substrate protein remaining % ≤ 80%)	A (A is defined as 0% ≤ substrate protein remaining % ≤ 80%)	B (B is defined as substrate protein remaining % > 80%)	A (A is defined as 0% ≤ substrate protein remaining % ≤ 80%)
NCc1cc(N2CCC(=O)NC2=O)cnc1F [GT-07729, 1-(5-(Aminomethyl)-6-fluoropyridin-3-yl)dihydropyrimidine-2,4(1H,3H)-dione]	A (A is defined as 0% ≤ substrate protein remaining % ≤ 80%)	B (B is defined as substrate protein remaining % > 80%)	A (A is defined as 0% ≤ substrate protein remaining % ≤ 80%)	A (A is defined as 0% ≤ substrate protein remaining % ≤ 80%)	A (A is defined as 0% ≤ substrate protein remaining % ≤ 80%)	A (A is defined as 0% ≤ substrate protein remaining % ≤ 80%)
NCc1cncc(N2CCC(=O)NC2=O)n1 [GT-07801, 1-(6-(Aminomethyl)pyrazin-2-yl)dihydropyrimidine-2,4(1H,3H)-dione]	B (B is defined as substrate protein remaining % > 80%)	A (A is defined as 0% ≤ substrate protein remaining % ≤ 80%)	B (B is defined as substrate protein remaining % > 80%)	B (B is defined as substrate protein remaining % > 80%)	B (B is defined as substrate protein remaining % > 80%)	B (B is defined as substrate protein remaining % > 80%)
O=C1CCC(Nc2ccc(CO)nn2)C(=O)N1 (stereo not drawn) [GT-07803, 3-((6-(Hydroxymethyl)pyridazin-3-yl)amino)piperidine-2,6-dione]	A (A is defined as 0% ≤ substrate protein remaining % ≤ 80%)	B (B is defined as substrate protein remaining % > 80%)	A (A is defined as 0% ≤ substrate protein remaining % ≤ 80%)	B (B is defined as substrate protein remaining % > 80%)	B (B is defined as substrate protein remaining % > 80%)	A (A is defined as 0% ≤ substrate protein remaining % ≤ 80%)
O=Cc1ccncc1NC1CCC(=O)NC1=O (stereo not drawn) [GT-07804, 3-((2,6-Dioxopiperidin-3-yl)amino)isonicotinaldehyde]	B (B is defined as substrate protein remaining % > 80%)	B (B is defined as substrate protein remaining % > 80%)	A (A is defined as 0% ≤ substrate protein remaining % ≤ 80%)	B (B is defined as substrate protein remaining % > 80%)	B (B is defined as substrate protein remaining % > 80%)	A (A is defined as 0% ≤ substrate protein remaining % ≤ 80%)
O=Cc1cncnc1NC1CCC(=O)NC1=O (stereo not drawn) [GT-07805, 4-((2,6-Dioxopiperidin-3-yl)amino)pyrimidine-5-carbaldehyde]	A (A is defined as 0% ≤ substrate protein remaining % ≤ 80%)	B (B is defined as substrate protein remaining % > 80%)	A (A is defined as 0% ≤ substrate protein remaining % ≤ 80%)	B (B is defined as substrate protein remaining % > 80%)	B (B is defined as substrate protein remaining % > 80%)	A (A is defined as 0% ≤ substrate protein remaining % ≤ 80%)
CC(C)(C)[Si](C)(C)OCc1cnc(NC2CCC(=O)NC2=O)nc1 (stereo not drawn) [GT-07808, 3-((5-(((tert-Butyldimethylsilyl)oxy)methyl)pyrimidin-2-yl)amino)piperidine-2,6-dione]	A (A is defined as 0% ≤ substrate protein remaining % ≤ 80%)	B (B is defined as substrate protein remaining % > 80%)	A (A is defined as 0% ≤ substrate protein remaining % ≤ 80%)	A (A is defined as 0% ≤ substrate protein remaining % ≤ 80%)	B (B is defined as substrate protein remaining % > 80%)	A (A is defined as 0% ≤ substrate protein remaining % ≤ 80%)
